Experimental data reported in US20230382925A1, “MODULATORS OF CYSTIC FIBROSIS TRANSMEMBRANE CONDUCTANCE REGULATOR” (VERTEX PHARMACEUTICALS INCORPORATED, priority 2020, published 2023).
Read-outs that look alike come from different tables or passages of the source.

Molecular target: CFTR (Homo sapiens, UniProt P13569)
Assay: Membrane Potential Dye, Enteroid Assay B
Type: cell-based
In short: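 Activity given as % of a triple-combination reference (1 μM and 3 μM correctors, 300 nM acute potentiator). Enteroids were preincubated 18-24 h with compound; chloride efflux then measured 15 min by methyl oxonol fluorescence after forskolin/IBMX/Compound III stimulation in chloride-free buffer containing CaCCinh-A01 and Chicago Sky Blue.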

[1] = Table 10, read-out: Ent. B EC50

CFTR, sequence (P13569 with tags, fused parts or gaps DEL508-508): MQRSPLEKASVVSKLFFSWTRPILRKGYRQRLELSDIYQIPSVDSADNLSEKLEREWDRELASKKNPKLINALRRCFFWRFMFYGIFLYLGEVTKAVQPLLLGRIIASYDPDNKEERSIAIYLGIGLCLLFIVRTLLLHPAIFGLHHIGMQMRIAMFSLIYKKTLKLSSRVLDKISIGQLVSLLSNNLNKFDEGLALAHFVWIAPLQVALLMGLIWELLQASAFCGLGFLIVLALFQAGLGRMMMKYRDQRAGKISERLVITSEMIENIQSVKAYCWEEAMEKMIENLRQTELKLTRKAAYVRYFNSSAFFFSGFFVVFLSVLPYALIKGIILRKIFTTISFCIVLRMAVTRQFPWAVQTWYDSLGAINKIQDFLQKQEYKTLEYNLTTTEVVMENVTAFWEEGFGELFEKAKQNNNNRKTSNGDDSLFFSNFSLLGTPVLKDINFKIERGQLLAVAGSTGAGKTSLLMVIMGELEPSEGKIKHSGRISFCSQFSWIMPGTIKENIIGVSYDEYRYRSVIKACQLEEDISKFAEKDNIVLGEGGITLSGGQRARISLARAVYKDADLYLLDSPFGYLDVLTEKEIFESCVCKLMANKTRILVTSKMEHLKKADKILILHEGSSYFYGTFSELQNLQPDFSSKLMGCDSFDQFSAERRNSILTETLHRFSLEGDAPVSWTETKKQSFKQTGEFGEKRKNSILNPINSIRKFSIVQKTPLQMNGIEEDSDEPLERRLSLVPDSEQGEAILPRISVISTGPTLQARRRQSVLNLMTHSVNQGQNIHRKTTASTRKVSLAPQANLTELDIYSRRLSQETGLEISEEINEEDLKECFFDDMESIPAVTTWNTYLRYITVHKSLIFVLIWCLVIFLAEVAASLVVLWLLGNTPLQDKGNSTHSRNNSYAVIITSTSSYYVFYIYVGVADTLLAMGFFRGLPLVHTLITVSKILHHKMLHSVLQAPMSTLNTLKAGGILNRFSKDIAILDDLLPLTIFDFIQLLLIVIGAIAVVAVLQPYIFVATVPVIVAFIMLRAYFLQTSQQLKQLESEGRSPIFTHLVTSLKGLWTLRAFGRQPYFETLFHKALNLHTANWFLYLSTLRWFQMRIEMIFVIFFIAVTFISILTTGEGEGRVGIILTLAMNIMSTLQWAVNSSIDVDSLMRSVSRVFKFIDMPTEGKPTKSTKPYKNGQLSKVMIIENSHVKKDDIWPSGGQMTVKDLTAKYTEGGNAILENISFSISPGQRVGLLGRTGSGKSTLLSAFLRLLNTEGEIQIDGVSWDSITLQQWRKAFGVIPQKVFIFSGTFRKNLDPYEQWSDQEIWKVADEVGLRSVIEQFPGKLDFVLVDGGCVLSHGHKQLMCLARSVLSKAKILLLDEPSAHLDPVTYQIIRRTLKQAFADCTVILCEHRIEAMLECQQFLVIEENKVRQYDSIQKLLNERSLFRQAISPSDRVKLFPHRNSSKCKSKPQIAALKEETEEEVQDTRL

Compound | Ent. B Max Activity (%) (Table 9) | EC50 (Table 9, read-out: Ent. B EC50) [nM] | other results
Cc1cccc(C)c1-c1cc2nc(n1)NS(=O)(=O)c1cccc(c1)C(=O)N(C1CC3(CCN(C(=O)N(C)C)CC3)C1)[C@H](CC(C)C)CO2 [Compound 26, 2-[(11R)-6-(2,6-Dimethylphenyl)-11-isobutyl-2,2,13-trioxo-9-oxa-2λ^6-thia-3,5,12,19-tetrazatricyclo[12.3.1.14,8]nonadeca-1(18),4(19),5,7,14,16-hexaen-12-yl]-N,N-dimethyl-7-azaspiro[3.5]nonane-7-carboxamide] | +++ (+++ is >60%) | < 1000 | 
CO[C@H]1C[C@H]2CC(N3C(=O)c4cccc(c4)S(=O)(=O)Nc4nc(cc(-c5c(C)cccc5C)n4)OC[C@H]3CC(C)C)C[C@H]2C1 (stereo partly drawn) [Compound 37, (11R)-12-[(3aR,6aS)-5-Methoxy-1,2,3,3a,4,5,6,6a-octahydropentalen-2-yl]-6-(2,6-dimethylphenyl)-11-isobutyl-2,2-dioxo-9-oxa-2λ^6-thia-3,5,12,19-tetrazatricyclo[12.3.1.14,8]nonadeca-1(18),4(19),5,7,14,16-hexaen-13-one] | +++ (+++ is >60%) | < 1000 | 
Cc1cccc(C)c1-c1cc2nc(n1)NS(=O)(=O)c1cccc(c1)C(=O)N(C1CS(=O)(=O)C1)[C@H](CC(C)C)CO2 [Compound 41, (11R)-6-(2,6-Dimethylphenyl)-12-(1,1-dioxothietan-3-yl)-11-isobutyl-2,2-dioxo-9-oxa-2λ^6-thia-3,5,12,19-tetrazatricyclo[12.3.1.14,8]nonadeca-1(18),4(19),5,7,14,16-hexaen-13-one] |  |  | Ent. B Max Activity (%) (Table 10): +++ (+++ is >60%); EC50 [1]: < 1000 nM
Cc1cccc(C)c1-c1cc2nc(n1)NS(=O)(=O)c1cccc(c1)C(=O)N(C1CC(OC(=O)N(C)C)C1)[C@H](CC(C)C)CO2 (stereo partly drawn) [Compound 48, [3-[(11R)-6-(2,6-dimethylphenyl)-11-isobutyl-2,2,13-trioxo-9-oxa-2λ^6-thia-3,5,12,19-tetrazatricyclo[12.3.1.14,8]nonadeca-1(18),4(19),5,7,14,16-hexaen-12-yl]cyclobutyl] N,N-dimethylcarbamate] |  |  | Ent. B Max Activity (%) (Table 10): ++ (++ is 30-60%); EC50 [1]: < 1000 nM
Cc1cccc(C)c1-c1cc2nc(n1)NS(=O)(=O)c1cccc(c1)C(=O)N(C1CC(C)(OC(F)(F)F)C1)[C@H](CC(C)C)CO2 (stereo partly drawn) [Compound 49, (11R)-6-(2,6-dimethylphenyl)-11-isobutyl-12-[3-methyl-3-(trifluoromethoxy)cyclobutyl]-2,2-dioxo-9-oxa-2λ^6-thia-3,5,12,19-tetrazatricyclo[12.3.1.14,8]nonadeca-1(18),4(19),5,7,14,16-hexaen-13-one] |  |  | Ent. B Max Activity (%) (Table 10): ++ (++ is 30-60%); EC50 [1]: < 1000 nM
Cc1cccc(C)c1-c1cc2nc(n1)NS(=O)(=O)c1cccc(c1)C(=O)N(C1CC(C)(OC(F)(F)F)C1)[C@H](CC(C)C)CO2 (stereo partly drawn) [Compound 50, (11R)-6-(2,6-dimethylphenyl)-11-isobutyl-12-[3-methyl-3-(trifluoromethoxy)cyclobutyl]-2,2-dioxo-9-oxa-2λ^6-thia-3,5,12,19-tetrazatricyclo[12.3.1.14,8]nonadeca-1(18),4(19),5,7,14,16-hexaen-13-one] |  |  | Ent. B Max Activity (%) (Table 10): ++ (++ is 30-60%); EC50 [1]: < 1000 nM
Cc1cccc(C)c1-c1cc2nc(n1)NS(=O)(=O)c1cccc(c1)C(=O)N(C1CC3(CC3)C1)[C@H](CCC(C)(C)O)CO2 [Compound 52, (11R)-6-(2,6-Dimethylphenyl)-11-(3-hydroxy-3-methyl-butyl)-2,2-dioxo-12-spiro[2.3]hexan-5-yl-9-oxa-2λ^6-thia-3,5,12,19-tetrazatricyclo[12.3.1.14,8]nonadeca-1(18),4(19),5,7,14,16-hexaen-13-one] |  |  | Ent. B Max Activity (%) (Table 10): ++ (++ is 30-60%); EC50 [1]: < 1000 nM
COC1CN([C@H]2C[C@@H](N3C(=O)c4cccc(c4)S(=O)(=O)Nc4nc(cc(-c5c(C)cccc5C)n4)OC[C@H]3CC(C)C)C2)C1 [Compound 65, (11R)-6-(2,6-dimethylphenyl)-11-isobutyl-12-[3-(3-methoxyazetidin-1-yl)cyclobutyl]-2,2-dioxo-9-oxa-2λ^6-thia-3,5,12,19-tetrazatricyclo[12.3.1.14,8]nonadeca-1(18),4(19),5,7,14,16-hexaen-13-one] | +++ (+++ is >60%) | < 1000 | 
Cc1cccc(C)c1-c1cc2nc(n1)NS(=O)(=O)c1cccc(c1)C(=O)N([C@H]1C[C@@H](N3CC(N(C)C)C3)C1)[C@H](CC(C)C)CO2 [Compound 66, (11R)-12-[3-[3-(Dimethylamino)azetidin-1-yl]cyclobutyl]-6-(2,6-dimethylphenyl)-11-isobutyl-2,2-dioxo-9-oxa-2λ^6-thia-3,5,12,19-tetrazatricyclo[12.3.1.14,8]nonadeca-1(18),4(19),5,7,14,16-hexaen-13-one] | +++ (+++ is >60%) | < 1000 | 
Cc1cccc(C)c1-c1cc2nc(n1)NS(=O)(=O)c1cccc(c1)C(=O)N([C@H]1C[C@@H](N(C)CCCO)C1)[C@H](CC(C)C)CO2 [Compound 67, (11R)-6-(2,6-Dimethylphenyl)-12-[3-[3-hydroxypropyl(methyl)amino]cyclobutyl]-11-isobutyl-2,2-dioxo-9-oxa-2λ^6-thia-3,5,12,19-tetrazatricyclo[12.3.1.14,8]nonadeca-1(18),4(19),5,7,14,16-hexaen-13-one] | +++ (+++ is >60%) | < 1000 | 
Cc1cccc(C)c1-c1cc2nc(n1)NS(=O)(=O)c1cccc(c1)C(=O)N(C1CC(N(C)[C@H](C)C(F)(F)F)C1)[C@H](CC(C)C)CO2 (stereo partly drawn) [Compound 68, (11R)-6-(2,6-Dimethylphenyl)-11-isobutyl-12-[3-[methyl-[(1R)-2,2,2-trifluoro-1-methyl-ethyl]amino]cyclobutyl]-2,2-dioxo-9-oxa-2λ^6-thia-3,5,12,19-tetrazatricyclo[12.3.1.14,8]nonadeca-1(18),4(19),5,7,14,16-hexaen-13-one] | ++ (++ is 30-60%) | < 1000 | 
Cc1cccc(C)c1-c1cc2nc(n1)NS(=O)(=O)c1cccc(c1)C(=O)N(C1CC(NC3CCC(C)(C)CC3)C1)[C@H](CC(C)C)CO2 (stereo partly drawn) [Compound 70, (11R)-12-[3-[(4,4-Dimethylcyclohexyl)amino]cyclobutyl]-6-(2,6-dimethylphenyl)-11-isobutyl-2,2-dioxo-9-oxa-2λ^6-thia-3,5,12,19-tetrazatricyclo[12.3.1.14,8]nonadeca-1(18),4(19),5,7,14,16-hexaen-13-one] | +++ (+++ is >60%) | < 1000 | 
Cc1cccc(C)c1-c1cc2nc(n1)NS(=O)(=O)c1cccc(c1)C(=O)N(C1CC(NC3CCOCC3)C1)[C@H](CC(C)C)CO2 (stereo partly drawn) [Compound 71, (11R)-6-(2,6-dimethylphenyl)-11-isobutyl-2,2-dioxo-12-[3-(tetrahydropyran-4-ylamino)cyclobutyl]-9-oxa-2λ^6-thia-3,5,12,19-tetrazatricyclo[12.3.1.14,8]nonadeca-1(18),4(19),5,7,14,16-hexaen-13-one] | +++ (+++ is >60%) | < 1000 | 
Cc1cccc(C)c1-c1cc2nc(n1)NS(=O)(=O)c1cccc(c1)C(=O)N(C1CC(N3CCS(=O)(=O)CC3)C1)[C@H](CC(C)C)CO2 (stereo partly drawn) [Compound 72, (11R)-6-(2,6-dimethylphenyl)-12-[3-(1,1-dioxo-1,4-thiazinan-4-yl)cyclobutyl]-11-isobutyl-2,2-dioxo-9-oxa-2λ^6-thia-3,5,12,19-tetrazatricyclo[12.3.1.14,8]nonadeca-1(18),4(19),5,7,14,16-hexaen-13-one] | +++ (+++ is >60%) | < 1000 | 
[H][C@]1(N2C(=O)c3cccc(c3)S(=O)(=O)Nc3nc(cc(-c4c(C)cccc4C)n3)OC[C@H]2CC2(C(F)(F)F)CC2)C[C@@]2(C[C@H](NC(=O)OC(C)C)C2)C1 (stereo partly drawn) [Compound 78, Isopropyl ((2S,4s,6S)-6-((R)-1^6-(2,6-dimethylphenyl)-3,3-dioxido-5-oxo-7-((1-(trifluoromethyl)cyclopropyl)methyl)-9-oxa-3-thia-2,6-diaza-1(2,4)-pyrimidina-4(1,3)-benzenacyclononaphane-6-yl)spiro[3.3]heptan-2-yl)carbamate] |  |  | Ent. B Max Activity (%): +++ (+++ is >60%); EC50 (read-out: Ent. B EC50): < 1000 nM

Further lines, with some results ahead:

Ent. B Max Activity (%) (Table 9) | EC50 (Table 9, read-out: Ent. B EC50) [nM] | Compound | other results
+++ (+++ is >60%) | < 1000 | Cc1cccc(C)c1-c1cc2nc(n1)NS(=O)(=O)c1cccc(c1)C(=O)N(C1CC3(CCN(C(=O)CO)CC3)C1)[C@H](CC(C)C)CO2 [Compound 25, (11R)-6-(2,6-Dimethylphenyl)-12-[7-(2-hydroxyacetyl)-7-azaspiro[3.5]nonan-2-yl]-11-isobutyl-2,2-dioxo-9-oxa-2λ^6-thia-3,5,12,19-tetrazatricyclo[12.3.1.14,8]nonadeca-1(18),4(19),5,7,14,16-hexaen-13-one] | 
+++ (+++ is >60%) | < 1000 | Cc1cccc(C)c1-c1cc2nc(n1)NS(=O)(=O)c1cccc(c1)C(=O)N(C1CC(N(C)CCC(C)(C)C)C1)[C@H](CC(C)C)CO2 (stereo partly drawn) [Compound 69, (11R)-12-[3-[3,3-dimethylbutyl(methyl)amino]cyclobutyl]-6-(2,6-dimethylphenyl)-11-isobutyl-2,2-dioxo-9-oxa-2λ^6-thia-3,5,12,19-tetrazatricyclo[12.3.1.14,8]nonadeca-1(18),4(19),5,7,14,16-hexaen-13-one] | 
+++ (+++ is >60%) | < 1000 | Cc1cccc(C)c1-c1cc2nc(n1)NS(=O)(=O)c1cccc(c1)C(=O)N(C1CC(NC34CC(C3)C4)C1)[C@H](CC(C)C)CO2 (stereo partly drawn) [Compound 73, (11R)-12-[3-(1-Bicyclo[1.1.1]pentanylamino)cyclobutyl]-6-(2,6-dimethylphenyl)-11-isobutyl-2,2-dioxo-9-oxa-2λ^6-thia-3,5,12,19-tetrazatricyclo[12.3.1.14,8]nonadeca-1(18),4(19),5,7,14,16-hexaen-13-one] | 
